Laboratory results published in patent US10487054B2, “Therapeutic compounds” (REGENTS OF THE UNIVERSITY OF MINNESOTA, priority 2017, dated 2019).

What was measured:
[1] = tested on: JB6 P+ mouse epidermal skin cells; assay: MTS assay for cytotoxicity; format: cell-based; conditions: 24 or 48 h, concentrations less than 10 μM
Experimental: (§1) Cells (1×10^4 cells/well) were seeded into 96-well plates. After an overnight incubation, cells were treated with different concentrations of compound 1 and incubated for 24 or 48 h. Then 20 μL of the CellTiter 96 Aqueous One Solution (Promega, Madison, Wis.) were added to each well and cells were incubated for an additional 1 h at 37° C. Absorbance was measured at an optical density of 492 and 690 nm using the Thermo Multiskan plate-reader (Thermo Fisher Scientific, Waltham, Mass.).
as §1, with “plates for determining cytotoxicity.” for “plates.”, “(Promega Corporation,” for “(Promega,”

[2] = tested on: normal human dermal fibroblasts (NHDF); assay: MTS assay for cytotoxicity; format: cell-based; conditions: 24 or 48 h, concentrations less than 10 μM
Experimental: as §1
as §1, with “plates for determining cytotoxicity.” for “plates.”, “(Promega Corporation,” for “(Promega,”

[3] = tested on: AP-1 activity in A431 cells; assay: AP-1 luciferase reporter assay in control or TOPK knockdown cells; format: cell-based, human
Experimental: The cells were cultured, treated for 4 h with different concentrations of compound 1 and then exposed to SUV (60 kJ UVA/m^2 and 2.9 kJ UVB/m^2), followed by an additional 15-minute incubation. Cells were harvested and the levels of phosphorylated and total proteins were determined by Western blot analysis with specific antibodies as indicated. […] The cells were cultured and treated with different concentrations of compound 1 for 24 h. Cells were harvested and the levels of phosphorylated and total proteins were determined by Western blot analysis with specific antibodies as indicated. […] For the luciferase assay, JB6 P+ cells stably transfected with an AP-1 luciferase reporter plasmid were cultured. […] Luciferase activity was measured and AP-1 activity is expressed relative to control cells without SUV treatment. […] Luciferase and 3-galactosidase activities were measured using reagents included in the reporter assay system (right). […] Significant differences were evaluated using one-way ANOVA and the asterisks (*) indicate a significant effect (*, p<0.05; **, p<0.001; ***, p<0.0001). […]
Stable control or TOPK knockdown cells were co-transfected with 100 ng of the AP-1 luciferase reporter plasmid and 50 ng of an internal control […] plasmid. […] Luciferase and β-galactosidase activities were measured using the Luminoskan Ascent and Multiskan MCC (Labsystems), respectively. […]

[4] = tested on: JB6 P+ cells; assay: Anchorage-independent cell growth assay (EGF-induced neoplastic transformation); format: cell-based, mouse; conditions: EGF 10 ng/ml, different concentrations
Experimental: Cells were exposed to EGF (10 ng/ml) and treated with increasing concentrations of compound 1. Representative photographs are shown and data are presented as mean values±S.D. from triplicate experiments. […] Cells were treated with different concentrations of compound 1 for several days and cell proliferation was determined by a crystal violet staining assay.
Cells (8×10^3/well) were seeded into 6-well plates with 0.3% Basal Medium Eagle agar containing 10% FBS with epidermal growth factor (EGF, 10 ng/ml) and different concentrations of compound 1 and then cultured for 1 to 2 weeks. Colonies were scored under a microscope using the Image-Pro PLUS (v6.) computer software program (Media Cybernetics. Rockville, Md.).

[5] = tested on: A431 cells; assay: Western blot of TOPK downstream signaling; format: cell-based, human
Experimental: (§2) The cells were cultured, treated for 4 h with different concentrations of compound 1 and then exposed to SUV (60 kJ UVA/m^2 and 2.9 kJ UVB/m^2), followed by an additional 15-minute incubation. Cells were harvested and the levels of phosphorylated and total proteins were determined by Western blot analysis with specific antibodies as indicated. […] The cells were cultured and treated with different concentrations of compound 1 for 24 h. Cells were harvested and the levels of phosphorylated and total proteins were determined by Western blot analysis with specific antibodies as indicated. […] For the luciferase assay, JB6 P+ cells stably transfected with an AP-1 luciferase reporter plasmid were cultured. After starvation for 24 h, cells were treated for 1 h with compound 1 (0, 1.25, 2.5, or 5 μM). Cells were then exposed to SUV (60 kJ UVA/m^2 and 2.9 kJ UVB/m^2) and harvested 3 h later. Luciferase activity was measured and AP-1 activity is expressed relative to control cells without SUV treatment. […] Knockdown of TOPK in A431 cell line (left). Stable control or TOPK knockdown cells were co-transfected with 100 ng of the AP-1 luciferase reporter plasmid and 50 ng of internal control […] plasmid. Cells were transfected using iMFectin poly DNA transfection reagent (GenDEPOT) according to the manufacturer's instructions. After 12 h of transfection, cells were incubated with the different concentrations of compound 1 for another 24 h. Luciferase and […] activities were measured using reagents included in the reporter assay system (right). Data are shown as mean values±S.D obtained from triplicate experiments. Significant differences were evaluated using one-way ANOVA and the asterisks (*) indicate a significant effect (*, p<0.05; **, p<0.001; ***, p<0.0001).
(§3) HaCaT or JB6 P+ cells (1×10^6) were cultured in 10-cm dishes for 24 h and then the medium was replaced with 0.1% FBS medium for 24 h. Cells were then treated with different concentrations of compound 1 for 4 h followed by exposure to SUV (60 kJ UVA/m^2 and 2.9 kJ UVB/m^2). After SUV, cells were incubated for 15 min at 37° C. in a 5% CO2 humidified incubator. SCC12 and A431 cells (1.5×10^6) were cultured in 10-cm dishes overnight and then starved for 24 h. Cells were then treated with different concentrations of compound 1 for an additional 24 h. Protein concentration in cell lysates was determined using a protein assay kit (Bio-Rad Laboratories, Hercules, Calif.). Equal amounts of proteins were resolved by SDS-PAGE and then transferred onto polyvinylidene difluoride (PVDF) membranes (EMD Millipore Corp., Billerica, Mass.) and membranes were blocked with 5% nonfat milk for 1 h at room temperature. […]

[6] = tested on: SCC12 cells; assay: Western blot of TOPK downstream signaling; format: cell-based, human
Experimental: as §2, §3

`O=C1Nc2ccc(C34CC5CC(CC(C5)C3)C4)cc2C1=NO` [compound 1, 5-(adamantan-1-yl)-3-(hydroxyimino)indolin-2-one] was tested. Which cytotoxicity [1] did it give?
The cytotoxicity was “no cytotoxicity”.

What about the cytotoxicity [2] of the same molecule?
Its cytotoxicity is “no cytotoxicity”.

And the AP-1 activity ([3]; A431 TOPK knockdown group, highest concentration (5 μM))?
The AP-1 activity was “only slightly affected”.

And the AP-1 activity ([3]; A431 control group, 24 h)?
The AP-1 activity was “inhibited by compound 1 in a dose-dependent manner”.

And the EGF-induced colony formation [4]?
The EGF-induced colony formation was “attenuated”.

And the “phosphorylated c-Jun protein levels” value [5]?
Its value is “blocked dose-dependently”.

And the “phosphorylation of ERK1/2, p38, and JNKs” value ([5]; 24 h, dose-dependently)?
The value was “blocked”.

And the “phosphorylated c-Jun protein levels” value [6]?
The value was “blocked dose-dependently”.

And the “phosphorylation of ERK1/2, p38, and JNKs” value ([6]; 24 h, dose-dependently)?
Its value is “blocked”.
